Columns and labels:
Assay in all cases: relative viability (nuclei count vs DMSO), 5 days (fraction); higher = more cells survive
YM155 + Luminespib = compound: COCC[n+]1c2c(n(Cc3cnccn3)c1C)C(=O)c1ccccc1C2=O [YM155] + CCNC(=O)c1noc(-c2cc(C(C)C)c(O)cc2O)c1-c1ccc(CN2CCOCC2)cc1 [Luminespib] (partner 0.01 µM)
Method in brief: (§1)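 Relative viability is defined as nuclei in treated wells over nuclei in vehicle wells. Duplicate plates were run and medians reported. Lung cancer cell lines in 1536-well plates were dosed by pin tool one day after seeding, with one drug or with a fixed anchor-drug dose plus five library-drug doses (not always all listed) in √10 steps, and nuclei were counted after 5 days.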

Quizartinib + Vorinostat = compound: CC(C)(C)c1cc(NC(=O)Nc2ccc(-c3cn4c(n3)sc3cc(OCCN5CCOCC5)ccc34)cc2)no1 [Quizartinib] + O=C(CCCCCCC(=O)Nc1ccccc1)NO [Vorinostat] (partner 1 µM)
Method in brief: as §1

YM155 + Olaparib = compound: COCC[n+]1c2c(n(Cc3cnccn3)c1C)C(=O)c1ccccc1C2=O [YM155] + O=C(c1cc(Cc2n[nH]c(=O)c3ccccc23)ccc1F)N1CCN(C(=O)C2CC2)CC1 [Olaparib] (partner 8 µM)
Method in brief: as §1

YM155 + Tozasertib = compound: COCC[n+]1c2c(n(Cc3cnccn3)c1C)C(=O)c1ccccc1C2=O [YM155] + Cc1cc(Nc2cc(N3CCN(C)CC3)nc(Sc3ccc(NC(=O)C4CC4)cc3)n2)n[nH]1 [Tozasertib] (partner 0.1 µM)
Method in brief: as §1

Cell Line | relative viability (YM155 + Luminespib; first compound 0.002 µM) | relative viability (YM155 + Luminespib; first compound 0.006325 µM) | relative viability (YM155 + Luminespib; first compound 0.02 µM) | relative viability (YM155 + Luminespib; first compound 0.06325 µM) | relative viability (Quizartinib + Vorinostat; first compound 0.003162 µM) | relative viability (Quizartinib + Vorinostat; first compound 0.01 µM) | relative viability (Quizartinib + Vorinostat; first compound 0.03162 µM) | relative viability (Quizartinib + Vorinostat; first compound 0.1 µM) | relative viability (YM155 + Olaparib; first compound 0.002 µM) | relative viability (YM155 + Olaparib; first compound 0.006325 µM) | relative viability (YM155 + Olaparib; first compound 0.02 µM) | relative viability (YM155 + Olaparib; first compound 0.06325 µM) | relative viability (YM155 + Tozasertib; first compound 0.002 µM) | relative viability (YM155 + Tozasertib; first compound 0.006325 µM) | relative viability (YM155 + Tozasertib; first compound 0.02 µM) | relative viability (YM155 + Tozasertib; first compound 0.06325 µM) | relative viability (Quizartinib + Vorinostat; first compound 0.001 µM)
H3255 | 0.752 | 0.949 | 0.948 | 1.02 | 0.744 | 0.732 | 0.808 | 0.836 | 0.577 | 0.581 | 0.578 | 0.508 | 0.68 | 0.59 | 0.616 | 0.351 | 
NCI-H1755 | 0.519 | 0.445 | 0.473 | 0.583 | 0.69 | 0.796 | 0.946 | 0.717 | 0.848 | 0.853 | 0.855 | 0.913 | 0.51 | 0.584 | 0.603 | 0.54 | 0.723
IA-LM |  |  |  |  | 0.811 |  | 0.874 | 0.955 | 0.836 | 0.891 | 0.879 | 0.642 |  |  |  |  | 0.71
NCI-H23 | 0.209 | 0.206 | 0.187 | 0.142 | 0.6 | 0.545 | 0.593 | 0.649 |  | 0.323 | 0.294 | 0.235 | 0.373 | 0.345 | 0.53 | 0.286 | 0.576
NCI-H661 | 0.841 | 0.948 | 0.927 | 0.393 | 0.812 | 0.87 | 0.807 | 0.888 | 0.727 | 0.686 | 0.739 | 0.41 | 0.376 | 0.358 | 0.369 | 0.285 | 0.724
PC-14 | 0.171 | 0.174 | 0.111 | 0.143 | 0.693 | 0.858 |  | 0.858 | 0.292 | 0.205 | 0.281 | 0.155 | 0.585 | 0.632 | 0.629 | 0.564 | 0.707
NCI-H647 | 0.151 | 0.148 | 0.162 | 0.106 | 0.494 | 0.655 | 0.688 | 0.998 | 0.506 | 0.64 | 0.516 | 0.295 | 0.317 | 0.302 | 0.401 | 0.303 | 0.567
NCI-H1792 | 0.441 | 0.47 | 0.475 | 0.403 |  |  |  |  | 0.382 | 0.253 | 0.502 | 0.454 |  |  |  |  | 
SW 900 | 0.179 | 0.188 | 0.164 | 0.177 | 0.561 | 0.373 | 0.608 | 0.583 |  | 0.788 | 0.848 | 0.808 | 0.816 | 0.553 | 0.588 | 0.45 | 0.402
EKVX | 0.847 | 0.855 | 0.888 | 0.724 | 0.815 | 0.631 | 0.69 | 0.634 | 0.912 | 0.875 | 0.854 | 0.401 | 0.401 | 0.411 | 0.448 | 0.379 | 
COR-L23 | 0.562 | 0.378 | 0.16 | 0.115 | 0.355 | 0.507 | 0.385 | 0.504 | 0.322 | 0.298 | 0.187 | 0.147 | 0.201 | 0.175 | 0.133 | 0.126 | 0.387
NCI-H1355 | 0.633 | 0.724 | 0.733 | 0.683 | 0.607 | 0.627 | 0.647 | 0.647 | 0.751 | 0.731 | 0.8 | 0.725 | 0.617 | 0.518 | 0.654 | 0.597 | 0.631
NCI-H2085 | 0.406 | 0.474 | 0.338 | 0.369 | 0.784 | 0.791 | 0.796 | 0.733 | 0.737 | 0.755 | 0.805 | 0.516 | 0.794 | 0.804 | 0.867 | 0.77 | 0.694
A-427 | 0.895 | 0.965 | 0.85 | 0.441 | 0.757 | 0.818 | 0.767 | 0.874 | 0.735 | 0.556 | 0.714 | 0.294 | 0.238 | 0.191 | 0.243 | 0.177 | 0.609
LOU-NH91 | 0.299 | 0.36 | 0.315 | 0.375 | 1.04 | 0.899 | 0.721 | 1.12 | 0.894 | 0.874 | 0.921 | 0.745 | 0.667 | 0.665 | 0.712 | 0.603 | 0.86
NCI-H1563 | 0.554 | 0.455 | 0.542 | 0.555 |  |  |  |  |  |  |  |  |  |  |  |  | 
HCC-78 |  |  |  |  | 0.44 | 0.445 | 0.419 | 0.445 | 0.882 | 0.865 | 0.807 | 1 | 0.442 | 0.454 | 0.52 | 0.498 | 0.453
EBC-1 |  |  |  |  |  |  |  |  | 0.819 | 0.743 | 0.799 | 0.622 |  |  |  |  | 
NCI-H1623 | 0.43 | 0.464 | 0.458 | 0.497 |  |  |  |  |  |  |  |  | 0.434 | 0.461 | 0.431 | 0.425 | 
NCI-H1703 |  |  |  |  |  |  |  |  | 0.499 | 0.403 | 0.346 | 0.387 |  |  |  |  | 
A549 |  |  |  |  |  |  |  |  | 0.232 | 0.313 | 0.376 | 0.324 |  |  |  |  | 
HCC-366 |  |  |  |  | 0.381 | 0.302 | 0.243 | 0.386 | 0.368 | 0.329 | 0.375 | 0.275 | 0.142 | 0.136 | 0.135 | 0.113 | 0.307
NCI-H1299 |  |  |  |  |  |  |  |  | 1 | 0.998 | 0.971 | 0.875 |  |  |  |  | 
Calu-6 |  |  |  |  |  |  |  |  | 0.544 | 0.586 | 0.294 | 0.129 |  |  |  |  | 

— the supplement of paper PMC10307832
